The numbers were not newly measured in PubChem BioAssay AID1259409 (Chemical Carcinogenesis Research Information System (CCRIS), 2018), which cites them from elsewhere.

This data set concerns rodent chemically induced tumor inhibition, incidence and multiplicity. Description: CCRIS tumor inhibitor studies. Particulars: Carcinogen: DIETHYLNITROSAMINE, 55-18-5, N-METHYLNITROSOUREA, 684-93-5, 1,2-DIMETHYLHYDRAZINE, 540-73-8, Carcinogen: DIETHYLNITROSAMINE, 55-18-5, N-METHYLNITROSOUREA, 684-93-5, 1,2-DIMETHYLHYDRAZINE, 540-73-8, Dose [Inhibitor]: 0, Route [Inhibitor]: ORAL, Species: RAT, Strain/Sex: F344/MALE, Dose [Carcinogen]: 100 MG/KG DEN ONCE, 20 MG/KG MNU 4 TIMES, 40 MG/KG DMH 4 TIMES, 0.05% BBN IN DRINKING WATER FOR 2 WK, 0.1% DHPN IN D, Dose [Carcinogen]: 100 MG/KG DEN ONCE, 20 MG/KG MNU 4 TIMES, 40 MG/KG DMH 4 TIMES, 0.05% BBN IN DRINKING WATER FOR 2 WK, 0.1% DHPN IN D, Promoter: NONE USED.

For `COc1cc(C=O)ccc1O`, the “tumour outcome (control, treated, inhibition, significance)” value is, setting by setting: (N-BUTYL-N-(4-HYDROXYB, N-BUTYL-N-(4-HYDROXYB, 1% IN DIET FOR 4 WK BEGINNING 1 DAY PRIOR TO CARCINOGEN TREATMENT (STUDY DURATION: 36 WK), Target Tissue: Type of Lesion: KIDNEY: ADENOMA) 4/14 (29%), 4/15 (27%), 7%, not significant; (N-BUTYL-N-(4-HYDROXYB, N-BUTYL-N-(4-HYDROXYB, 1% IN DIET FOR 4 WK BEGINNING 1 DAY PRIOR TO CARCINOGEN TREATMENT (STUDY DURATION: 36 WK), Target Tissue: Type of Lesion: KIDNEY: NEPHROBLASTOMA) 7/14 (50%), 8/15 (53%), -6%, not significant; (N-BUTYL-N-(4-HYDROXYB, N-BUTYL-N-(4-HYDROXYB, 1% IN DIET FOR 4 WK BEGINNING 1 DAY PRIOR TO CARCINOGEN TREATMENT (STUDY DURATION: 36 WK), Target Tissue: Type of Lesion: LARGE INTESTINE: ADENOMA) 7/14 (50%), 6/15 (40%), 20%, not significant; (N-BUTYL-N-(4-HYDROXYB, N-BUTYL-N-(4-HYDROXYB, 1% IN DIET FOR 4 WK BEGINNING 1 DAY PRIOR TO CARCINOGEN TREATMENT (STUDY DURATION: 36 WK), Target Tissue: Type of Lesion: LARGE INTESTINE: CARCINOMA) 3/14 (21%), 11/15 (73%), -248%, p<0.01; (N-BUTYL-N-(4-HYDROXYB, N-BUTYL-N-(4-HYDROXYB, 1% IN DIET FOR 4 WK BEGINNING 1 DAY PRIOR TO CARCINOGEN TREATMENT (STUDY DURATION: 36 WK), Target Tissue: Type of Lesion: LUNG: ADENOMA) 6/14 (43%), 2/15 (13%), 70%, not significant; (N-BUTYL-N-(4-HYDROXYB, N-BUTYL-N-(4-HYDROXYB, 1% IN DIET FOR 4 WK BEGINNING 1 DAY PRIOR TO CARCINOGEN TREATMENT (STUDY DURATION: 36 WK), Target Tissue: Type of Lesion: SMALL INTESTINE: ADENOMA) 6/14 (43%), 3/15 (20%), 53%, not significant. Also, the “tumour outcome (control, treated, inhibition, significance)” value reads like this: (N-BUTYL-N-(4-HYDROXYB, N-BUTYL-N-(4-HYDROXYB, 1% IN DIET FOR 4 WK BEGINNING 1 DAY PRIOR TO CARCINOGEN TREATMENT (STUDY DURATION: 36 WK), Target Tissue: Type of Lesion: SMALL INTESTINE: CARCINOMA) 5/14 (36%), 2/15 (13%), 64%, not significant; (N-BUTYL-N-(4-HYDROXYB, N-BUTYL-N-(4-HYDROXYB, 1% IN DIET FOR 32 WK BEGINNING POST CARCINOGEN TREATMENT (STUDY DURATION: 36 WK), Target Tissue: Type of Lesion: KIDNEY: ADENOMA) 4/14 (29%), 9/15 (60%), -107%, not significant; (N-BUTYL-N-(4-HYDROXYB, N-BUTYL-N-(4-HYDROXYB, 1% IN DIET FOR 32 WK BEGINNING POST CARCINOGEN TREATMENT (STUDY DURATION: 36 WK), Target Tissue: Type of Lesion: KIDNEY: NEPHROBLASTOMA) 7/14 (50%), 11/15 (73%), -46%, not significant; (N-BUTYL-N-(4-HYDROXYB, N-BUTYL-N-(4-HYDROXYB, 1% IN DIET FOR 32 WK BEGINNING POST CARCINOGEN TREATMENT (STUDY DURATION: 36 WK), Target Tissue: Type of Lesion: LARGE INTESTINE: CARCINOMA) 3/14 (21%), 5/15 (33%), -57%, not significant; (N-BUTYL-N-(4-HYDROXYB, N-BUTYL-N-(4-HYDROXYB, 1% IN DIET FOR 32 WK BEGINNING POST CARCINOGEN TREATMENT (STUDY DURATION: 36 WK), Target Tissue: Type of Lesion: SMALL INTESTINE: ADENOMA) 6/14 (43%), 4/15 (27%), 37%, not significant; (N-BUTYL-N-(4-HYDROXYB, N-BUTYL-N-(4-HYDROXYB, 1% IN DIET FOR 32 WK BEGINNING POST CARCINOGEN TREATMENT (STUDY DURATION: 36 WK), Target Tissue: Type of Lesion: SMALL INTESTINE: CARCINOMA) 5/14 (36%), 1/15 (7%), 81%, not significant. For the same compound, the “tumour outcome (control, treated, inhibition, significance)” value (N-BUTYL-N-(4-HYDROXYBU, N-BUTYL-N-(4-HYDROXYBU, 1% IN DIET FOR 32 WK BEGINNING POST CARCINOGEN TREATMENT (STUDY DURATION: 36 WK), Target Tissue: Type of Lesion: LARGE INTESTINE: ADENOMA) was 7/14 (50%), 8/15 (53%), -6%, not significant and the “tumour outcome (control, treated, inhibition, significance)” value (N-BUTYL-N-(4-HYDROXYBU, N-BUTYL-N-(4-HYDROXYBU, 1% IN DIET FOR 32 WK BEGINNING POST CARCINOGEN TREATMENT (STUDY DURATION: 36 WK), Target Tissue: Type of Lesion: LUNG: ADENOMA) is 6/14 (43%), 3/15 (20%), 53%, p<0.05.
